{
  "source": "patent US6242445A",
  "about": "“Benzimidazole derivative” (Kureha Chemical Industry Co., Ltd., priority 1998, dated 2001)",
  "key": {"[1]": {"tested_on": "kidney disease model rats", "experiment": "Action to lower blood pressure in kidney disease model rats", "format": "in vivo, Sprague-Dawley female rats", "details": "20 mg/kg oral", "protocol": "(§1) In this Example, an action to lower blood pressure was evaluated. That is, each of 2-ethoxy-1-[[4'- (2'-N,N-dimethylamino-ethoxycarbonyl) phenyl]methyl]-1H-benzimidazole-6-carboxylic acid morpholide (Compound No. 13) prepared in Example 6, 2-ethoxy-1-[[4'-(2\"-morpholinoethoxycarbonyl)-phenyl]methyl]-1H-benzimidazole-6-carboxylic acid piperidinamide (Compound No. 57) prepared in Example 28, or the reference substance was forcibly orally administered to kidney disease model rats, and the action of lowering the blood pressure was observed. The kidney disease model rats were prepared by a ligature of branches of renal artery in accordance with a conventional method. Namely, the left hilum renalis of Sprague-Dawley female rats was exposed under anesthesia, and one of four secondary branches of the renal artery was left unligated, while the remaining three branches were ligated, respectively. After a week, the hilum renalis (artery, vein, and ureter) of the right kidney were further ligated to thereby prepare rats whose renal function was lowered to approximately 1/8 of the normal function. Each group consisted of eight rats. The drugs to be tested (20 mg/kg) were administered to each administering group, and only water was administered to a control group. Two days after the administration, the systolic blood pressure was measured by the tail cuff method using a blood pressure measuring apparatus (UR^5000; Ueda)."}, "[2]": {"tested_on": "kidney disease model rats", "experiment": "Action to kidney diseases, renal function indicatory values", "format": "in vivo, Sprague-Dawley female rats", "details": "20 mg/kg/day, two weeks", "protocol": "The kidney disease model rats were prepared by a ligature of branches of renal artery in accordance with a conventional method. Namely, the left hilum renalis of Sprague-Dawley female rats was exposed under anesthesia, and one of four secondary branches of the renal artery was left unligated, while the remaining three branches were ligated, respectively. After a week, the hilum renalis (artery, vein, and ureter) of the right kidney were further ligated to thereby prepare rats whose renal function was lowered to approximately 1/8 of the normal function. Each group consisted of eight rats. The drugs to be tested (20 mg/kg) were administered to each administering group, and only water was administered to a control group. Two days after the administration, the systolic blood pressure was measured by the tail cuff method using a blood pressure measuring apparatus (UR^5000; Ueda).\nIn this Example, an action to kidney diseases was evaluated on the basis of a renal function indicatory value.\nFifteen groups (8 rats per group) were prepared in a manner such that there was no major difference between the groups in the serum creatinine value and the blood urea nitrogen value indicating renal function. The rats in each group were allowed to freely take up food and water. […] To the rats in the control group, only water was forcibly orally administered every day. After two weeks, 0.2 ml of blood was collected from the carotid artery of the rats under anesthesia, and centrifuged to obtain serum. Using 25 μl of the serum, the serum creatinine (Scr) was measured by a creatinine analytical instrument (Beckman). Using 10 μl of the serum, the blood urea nitrogen (BUN) was measured by a BUN analytical instrument (Beckman). The creatinine clearance was evaluated as follows:\nAfter the serum creatinine measurement, rats were placed in urinary metabolic cages for 24 hours to collect urine. A urinary creatine concentration (Ucr) was measured by a creatinine analytical instrument, and a total volume of urination (Uvol) was also measured. The creatinine clearance (CCr) was calculated by the following formula: [formula]\nIn the above formula, the unit of \"Ucr\" and \"Scr\" is \"mg/ml\" and the unit of \"Uvol\" is \"ml\"."}, "[3]": {"tested_on": "kidney disease model rats", "experiment": "Survival time of kidney diseased animals", "format": "in vivo, Sprague-Dawley female rats", "details": "20 mg/kg/day; observation period eight weeks (upper limit); control 5.0", "protocol": "as §1\nIn this Example, an action to survival time of kidney diseased animals was evaluated. As compounds to be examined, 2-ethoxy-1-[[4'-(2\"-N,N-dimethylamino-ethoxycarbonyl)-phenyl]methyl]-1H-benzimidazole-6-carboxylic acid morpholide (Compound No. 13) prepared in Example 6, and 2-ethoxy-1-[[4'-(2\"-morpholinoethoxycarbonyl)phenyl]methyl]-1H-benzimidazole-6-carboxylic acid piperidinamide (Compound No. 57) prepared in Example 28 were used.\nThe kidney disease model rats were prepared as in Example 38. Fifteen groups (8 rats per group) were prepared in a manner such that there was no major difference between the groups in the serum creatinine value and the blood urea nitrogen value indicating renal function. The rats in each group were allowed to freely take up food and water. […] To the rats in the control group, only water was forcibly orally administered every day. If kidney diseases are aggravated, the rat will die of uremia. Thus, the survival time was observed as a comprehensive indication of the improvement of the effect on the kidney diseases. The observation period was eight weeks. Thus if all rats survived, the average survival time is eight weeks, and is an upper limit."}, "[4]": {"tested_on": "rat suffering from a kidney disease", "details": "J. Clinical Invest., 90: 766-771, 1992; cited from earlier work"}, "[5]": {"tested_on": "rat suffering from hyperlipemia", "details": "Nephron, 65: 426-432, 1993, cited from earlier work"}},
  "note": "Like-named read-outs stand apart in the source and are kept apart here.",
  "data": [
    {"compound": "CCCCc1nc(Cl)c(CO)n1Cc1ccc(-c2ccccc2-c2nnn[nH]2)cc1", "note": "[DuP753, 2-butyl-4-chloro-5-(hydroxymethyl)-1-[[2'-(1H-tetrazole-5-yl)biphenyl-4-yl]methyl]imidazole, reference compound]", "values": [
      {"measurement": "action of lowering the blood pressure", "setting": "[1]; in comparison with the control group", "value": "clearly exhibited the action of lowering the blood pressure"},
      {"measurement": "Blood pressure", "setting": "[1]; systolic, tail cuff, average, two days after administration, control 210", "value": 130, "unit": "mmHg"},
      {"measurement": "Creatinine clearance", "setting": "[2]; control 0.22", "value": 0.32, "unit": "mL/min"},
      {"measurement": "Creatinine", "setting": "[2]; serum, control 2.0", "value": 1.6, "unit": "mg/dL"},
      {"measurement": "Blood urea nitrogen", "setting": "[2]; serum, control 100", "value": 80, "unit": "mg/dL"},
      {"measurement": "Average survival time", "setting": "[3]", "value": 6.9, "unit": "weeks"},
      {"measurement": "effect in proteinuria and glomerulosclerosis", "setting": "[4]", "value": "effective in proteinuria and glomerulosclerosis"},
      {"measurement": "lowering of the blood pressure", "setting": "[4]", "value": "explicit lowering of the blood pressure"},
      {"measurement": "lowering of the blood pressure", "setting": "[5]; higher dose", "value": "explicit lowering of the blood pressure"},
      {"measurement": "renal lesion", "setting": "[5]; higher dose", "value": "more effective in the renal lesion"},
      {"measurement": "influence on the blood pressure", "setting": "[5]; lower dose", "value": "without a substantial influence on the blood pressure"},
      {"measurement": "renal lesion", "setting": "[5]; lower dose", "value": "renal lesion is improved"}
    ]}
  ]
}
